Assay results published in patent US8614339B2, “Dimeric derivatives of artemisinin and application in anti-cancer therapy” (Pierre Fabre Medicament, priority 2008, dated 2013).

Assays:
A549 cell line (lung) = experiment: Cytotoxic activity: inhibition of cell proliferation, ATPLite luminescence of residual ATP after 72 hours; assay type: cell-based; details: A549 human lung tumour cell line, 72 hours of incubation, read-out: IC50 (expressed in nM) A549
Protocol: (§1) The cytotoxic activity of the compounds of the invention was evaluated by measuring inhibition of cell proliferation of human tumour cell lines, such as the A549 cell line (lung) and the Namalwa cell line (lymphoma). This activity is expressed by IC50, the concentration of the product tested able to inhibit cell proliferation by 50%. The method employed is measurement by luminescence of residual ATP after 72 hours of incubation using the ATPLite® kit sold by Perkin Elmer, as described in the following publication: “Measurement of cytotoxicity by ATP-based luminescence assay in primary cell cultures and cell lines.” I. A. Cree, P. E. Andreotti, Toxicology in Vitro, 11, 553-6, (1997).
(§2) As an example, the cytotoxic properties of a few of the compounds of the invention evaluated on A549 and Namalwa cell lines are presented in the following table: […]

[1] = system: Namalwa cell line (lymphoma); experiment: as above; assay type: cell-based; details: Namalwa human lymphoma cell line, 72 hours of incubation, read-out: IC50 (expressed in nM) Namalwa
Protocol: as §1, §2

Row | Structure (SMILES) | IC50 (A549 cell line (lung)) [nM] | IC50 [1] [nM]
1 | C[C@@H]1CC[C@H]2C(COCCCO[C@@]3(C(F)(F)F)O[C@@H]4OC5(C)CCC6[C@H](C)CC[C@@H]([C@H]3C)[C@]64OO5)=C(C(F)(F)F)O[C@@H]3OC4(C)CCC1[C@]32OO4 (stereo partly drawn) [Compound 1] | 5.2 | 6.8
2 | C[C@@H]1CC[C@H]2C(COCCO[C@@]3(C(F)(F)F)O[C@@H]4OC5(C)CCC6[C@H](C)CC[C@@H]([C@H]3C)[C@]64OO5)=C(C(F)(F)F)O[C@@H]3OC4(C)CCC1[C@]32OO4 (stereo partly drawn) [Compound 2] | 25 | 27
3 | C[C@@H]1CC[C@H]2C(COCCCCO[C@@]3(C(F)(F)F)O[C@@H]4OC5(C)CCC6[C@H](C)CC[C@@H]([C@H]3C)[C@]64OO5)=C(C(F)(F)F)O[C@@H]3OC4(C)CCC1[C@]32OO4 (stereo partly drawn) [Compound 3] | 6.7 | 5.5
4 | C[C@@H]1CC[C@H]2C(COCc3cccc(CO[C@@]4(C(F)(F)F)O[C@@H]5OC6(C)CCC7[C@H](C)CC[C@@H]([C@H]4C)[C@]75OO6)n3)=C(C(F)(F)F)O[C@@H]3OC4(C)CCC1[C@]32OO4 (stereo partly drawn) [Compound 4] | 27 | 19
5 | C[C@@H]1CC[C@H]2C(Cn3nncc3CO[C@@]3(C(F)(F)F)O[C@@H]4OC5(C)CCC6[C@H](C)CC[C@@H]([C@H]3C)[C@]64OO5)=C(C(F)(F)F)O[C@@H]3OC4(C)CCC1[C@]32OO4 (stereo partly drawn) [Compound 7] | 45 | 30
6 | C[C@@H]1CC[C@H]2C(COC/C=C/CO[C@@]3(C(F)(F)F)O[C@@H]4OC5(C)CCC6[C@H](C)CC[C@@H]([C@H]3C)[C@]64OO5)=C(C(F)(F)F)O[C@@H]3O[C@@]4(C)CCC1[C@]32OO4 (stereo partly drawn) [Compound 8] | 27 | 13
7 | C[C@@H]1CC[C@H]2C(CNCCO[C@@]3(C(F)(F)F)O[C@@H]4OC5(C)CCC6[C@H](C)CC[C@@H]([C@H]3C)[C@]64OO5)=C(C(F)(F)F)O[C@@H]3O[C@@]4(C)CCC1[C@]32OO4 (stereo partly drawn) [Compound 10] | 27 | 19
8 | C[C@@H]1CC[C@H]2[C@@H](C)[C@](OCCCCCOCC3=C(C(F)(F)F)O[C@@H]4O[C@@]5(C)CC[C@H]6[C@H](C)CC[C@@H]3[C@@]46OO5)(C(F)(F)F)O[C@@H]3O[C@@]4(C)CC[C@@H]1[C@]32OO4 [Compound 16] | 19 | 42
9 | C[C@@H]1CC[C@H]2[C@@H](C)[C@](OCCCCCN(C)CC3=C(C(F)(F)F)O[C@@H]4O[C@@]5(C)CC[C@H]6[C@H](C)CC[C@@H]3[C@@]46OO5)(C(F)(F)F)O[C@@H]3O[C@@]4(C)CC[C@@H]1[C@]32OO4 [Compound 22] | 46 | 83
